In ChEMBL document CHEMBL2163255, “Zwitterions can be predominant in membrane penetration of drugs: experimental proof” (J Med Chem, 2012):

Legend:
Format in all cases: physicochemical
[1] = Octanol-water partition coefficient, log P of noncharged form of compound at 0.15 M ionic strength by stir flask method
[2] = Octanol-water distribution coefficient, log D of the compound at pH 0.82 by stir flask method
[3] = Octanol-water partition coefficient, log P of zwitter ionic form of compound at 0.15 M ionic strength by stir flask method
[4] = Octanol-water distribution coefficient, log D of the compound at pH 5.4 by stir flask method
[5] = Octanol-water distribution coefficient, log D of the compound at pH 13.18 by stir flask method
[6] = Octanol-water distribution coefficient, log D of the compound at pH 4.96 by stir flask method

logP [1]	logD [2]	logP [3]	logD [4]	logD [5]	logD [6]	SMILES
4.45	0.94					CCOC(=O)C1=C[C@]2(CC)CCCN3CCc4c(n1c1ccccc41)[C@@H]32 [VINPOCETINE]
4.75	0.9					CCOC(=O)C1=C[C@]2(CC)CCCN3CCc4c(n1c1ccccc41)[C@H]32
3.46	-0.05	-1.03	-0.97	-0.07		CC[C@@]12C=C(C(=O)O)n3c4c(c5ccccc53)CCN(CCC1)[C@H]42
3.98	0.13	-0.22		0.21	-0.14	CC[C@@]12C=C(C(=O)O)n3c4c(c5ccccc53)CCN(CCC1)[C@@H]42
